Results as given in patent publication US9309304B2, “Glycation cross-link breakers to increase resistance to enzymatic degradation” (NEW YORK SOCIETY FOR THE RUPTURED AND CRIPPLED MAINTAINING …, priority 2012, dated 2016).

What was measured:
[1] = Relative fluorescence of solubilized fibers; assay type: physicochemical, rat; details: 7 days of 0.2 M ribose exposure, about 460 nm
Experimental: Ribose incorporation into fibers over time was assessed by fluorescence of solubilized fibers following 0 to 10 days of incubation (Verzijl et al. 2002). Fibers were incubated in 0.2 M ribose solution (solution was exchanged with fresh ribose solution at day 3) and sample fibers were removed daily, rinsed in PBS, and then stored at 4° C. until the end of the time course. Fibers were weighed, then dissolved at 60° C. in a 1:20 dilution of papain (Carica Papaya, Roche Diagnostics, Indianapolis, Ind.) in buffer per the commercial protocol at a concentration of 1 mg tendon per 50 uL of papain solution. Relative fluorescence was measured at about 460 nm using a spectrophotometer (340 ATTC, Tecan US, Chapel Hill, N.C.) as reported by Verzijl et al. 2002. Maximum fluorescence was estimated from measurements of fibers incubated in ribose for 5 weeks.

collagenase = assay: CEMKATS test of Alagebrium-treated 7-day glycated tendon fibers (Example 6); assay type: biochemical; details: 15 mM Alagebrium 12 hours
Experimental: 7-day glycated (cross-linked) tendon fibers are immersed for 12 hours in a solution of 15 mM Alagebrium dissolved in PBS at a temperature ranging from about 4° C. to 37° C. The fibers are removed from the solution, rinsed in PBS, and then soaked in fresh PBS for 15 minutes. After this soak, the fibers are removed from the PBS bath, rinsed with fresh PBS. The visible PBS is blotted off and the fibers are interfaced with the CEMKATS system. Mechanical strain is applied as described in Example 1. The fiber reaches a peak stress during loading and subsequently relaxes to an equilibrium stress. Once the specimen reaches equilibrium, collagenase would be added. The resulting change in load would be observed and recorded (which would be converted post-hoc to stress).

[2] = AGE cross-links in treated graft tissue by FTIR spectrum
Experimental: For an ACL reconstruction, a bone-patellar tendon-bone graft (other eligible grafts include hamstring tendon) is harvested from a cadaveric donor per standard collection procedure. Before freezing, the graft tissue is immersed in a sterile filtered isotonic buffered saline solution containing Alagebrium at a concentration of 0.1 mM for 8 hours at a temperature of ranging from about 4° C. to 37° C. Following incubation with the cross-link breaking reagent, the specimen is rinsed with sterile isotonic buffered saline and then is immersed in a rinsing fluid, such as sterile isotonic buffered saline, with a volume of at least 10 times greater than the estimated volume of the specimen. The specimen remains immersed in the rinse fluid for 30 minutes. The rinsing and immersion step is repeated twice more with fresh rinse solution each time. The tissue specimen is then removed from the fluid, excess liquid is allowed to drain, any visible fluid is gently blotted off with sterile gauze, and is then frozen as per standard procedure. For an ACL reconstruction, a bone-patellar tendon-bone graft (other eligible grafts include hamstring tendon) is harvested from the patient as per standard collecting procedure. Before use, the graft tissue is wrapped in sterile gauze and is soaked in a sterile filtered isotonic buffered saline solution containing Alagebrium at a concentration of 100 mM for 15 minutes at a temperature ranging from about 4° C. to 37° C. Following incubation with the cross-link breaking reagent, the specimen is unwrapped, rinsed with sterile istonic buffered saline and then is wrapped again with sterile gauze and immersed in a rinsing fluid, such as sterile isotonic buffered saline, with a volume of at least 10 times greater than the estimated volume of the specimen. The specimen remains immersed in the rinse fluid for 15 minutes. The tissue specimen is then removed from the fluid, unwrapped, excess liquid is allowed to drain, any visible fluid is gently blotted off with sterile gauze, and then the graft is utilized as per standard procedure. […]

[3] = Randomized control trial of treated grafts for ACL reconstruction; assay type: in vivo; details: for relative risk of negative outcomes (Lachman test, pivot-shift test, Drawer test): 6 and 12 months post-surgery
Experimental: For an ACL reconstruction, a bone-patellar tendon-bone graft (other eligible grafts include hamstring tendon) is harvested from a cadaveric donor per standard collection procedure. Before freezing, the graft tissue is immersed in a sterile filtered isotonic buffered saline solution containing Alagebrium at a concentration of 0.1 mM for 8 hours at a temperature of ranging from about 4° C. to 37° C. Following incubation with the cross-link breaking reagent, the specimen is rinsed with sterile isotonic buffered saline and then is immersed in a rinsing fluid, such as sterile isotonic buffered saline, with a volume of at least 10 times greater than the estimated volume of the specimen. The specimen remains immersed in the rinse fluid for 30 minutes. The rinsing and immersion step is repeated twice more with fresh rinse solution each time. The tissue specimen is then removed from the fluid, excess liquid is allowed to drain, any visible fluid is gently blotted off with sterile gauze, and is then frozen as per standard procedure. […] For an ACL reconstruction, a bone-patellar tendon-bone graft (other eligible grafts include hamstring tendon) is harvested from the patient as per standard collecting procedure. Before use, the graft tissue is wrapped in sterile gauze and is soaked in a sterile filtered isotonic buffered saline solution containing Alagebrium at a concentration of 100 mM for 15 minutes at a temperature ranging from about 4° C. to 37° C. Following incubation with the cross-link breaking reagent, the specimen is unwrapped, rinsed with sterile istonic buffered saline and then is wrapped again with sterile gauze and immersed in a rinsing fluid, such as sterile isotonic buffered saline, with a volume of at least 10 times greater than the estimated volume of the specimen. The specimen remains immersed in the rinse fluid for 15 minutes. The tissue specimen is then removed from the fluid, unwrapped, excess liquid is allowed to drain, any visible fluid is gently blotted off with sterile gauze, and then the graft is utilized as per standard procedure.

[4] = cadaveric bone-patellar tendon-bone graft, 0.1 mM for 8 hours

Compound | relative fluorescence of solubilized rat tail tendon [1] | EMK function values versus cross-linked control specimens (collagenase; higher strain (above about 3%)) | EMK function values versus cross-linked control specimens (collagenase; low strain (less than about 1.25%)) | amounts of AGE cross-links (AGE associated absorption peak, FTIR) ([2]; autologous bone-patellar tendon-bone graft, 100 mM for 15 minutes) | amounts of AGE cross-links (AGE associated absorption peak, FTIR) [2, 4] | stiffness of treated specimen [2, 4] | surgical outcome of ACL reconstruction ([3]; operating room treated autograft, 100 mM for 15 minutes) | surgical outcome of ACL reconstruction ([3]; tissue bank treated graft, 0.1 mM for 8 hours) | relative risk of negative outcomes (Lachman test, pivot-shift test, Drawer test) ([3]; versus placebo-treated grafts, operating room treated autograft) | relative risk of negative outcomes (Lachman test, pivot-shift test, Drawer test) ([3]; versus untreated grafts, tissue bank treated graft)
O=C[C@H](O)[C@H](O)[C@H](O)CO [ribose, D-Ribose] | significantly increased | – | – | – | – | – | – | – | – | –
Cc1sc[n+](CC(=O)c2ccccc2)c1C.[Cl-] [Alagebrium, 3-phenacyl-4,5-dimethylthiazolium chloride] | – | higher value for the control specimens than the Alagebrium-treated specimens | lower for controls than Alagebrium-treated specimens | significantly decreased amounts of AGE cross-links | significantly decreased amounts of AGE cross-links | less stiff after treatment | improved surgical outcome | improved surgical outcome | lower relative risk | lower relative risk
